PubChem BioAssay (NCI)
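Cells were grown in 96-well plates and exposed to each compound for 48 hours at five concentrations; endpoints were interpolated linearly between bracketing concentrations, or set to the highest concentration if not reached. GI50 is the concentration that inhibits growth by half. Definition used: TGI = concentration required for complete inhibition of growth.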

Key:
Experiment in all cases: NCI tumour cell line growth inhibition, 48 h
[1] = tested on: DU-145 prostate
[2] = tested on: SN12C renal
[3] = tested on: BT-549 breast
[4] = tested on: U251 CNS
[5] = tested on: HCT-15 colon
[6] = tested on: UO-31 renal
[7] = tested on: MDA-MB-435
[8] = tested on: NCI-H226 lung
[9] = tested on: NCI-H522 lung
[10] = tested on: UACC-257 melanoma
[11] = tested on: NCI/ADR-RES ovarian
[12] = tested on: 786-0 renal
[13] = tested on: LOX IMVI melanoma
[14] = tested on: SK-OV-3 ovarian
[15] = tested on: T-47D breast
[16] = tested on: SK-MEL-2 melanoma
[17] = tested on: HS 578T breast
[18] = tested on: OVCAR-5 ovarian
[19] = tested on: OVCAR-3 ovarian
[20] = tested on: SK-MEL-5 melanoma
[21] = tested on: ACHN renal
[22] = tested on: HOP-92 NSCLC
[23] = tested on: OVCAR-4 ovarian
[24] = tested on: RPMI-8226 leukemia
[25] = tested on: KM12 colon
[26] = tested on: SF-539 CNS
[27] = tested on: HL-60(TB) leukemia
[28] = tested on: HT29 colon
[29] = tested on: TK-10 renal

COc1ccc(C(=O)c2cc(OC)c(C)c(OC)c2)cc1OC(=O)CCl
GI50 [1]: 322 nM
TGI [1]: 18.2 µM
GI50 [2]: 638 nM
TGI [2]: 37.1 µM
GI50 [3]: 395 nM
TGI [3]: 10.3 µM
GI50 [4]: 415 nM
TGI [4]: > 45.3 µM
GI50 [5]: 69.7 nM
TGI [5]: 27.2 µM
GI50 [6]: 628 nM
TGI [6]: 74 µM
GI50 [7]: 26.5 nM
TGI [7]: 90.2 nM
GI50 [8]: 8 µM
TGI [8]: > 30.6 µM
GI50 [9]: 210 nM
TGI [9]: 14.1 µM
GI50 [10]: 14 µM
TGI [10]: > 95.8 µM
GI50 [11]: 181 nM
TGI [11]: 4.38 µM
GI50 [12]: 3.65 µM
TGI [12]: > 79.5 µM
GI50 [13]: 244 nM
TGI [13]: 19.6 µM
GI50 [14]: 760 nM
TGI [14]: > 100 µM
GI50 [15]: 3.26 µM
TGI [15]: > 79 µM
GI50 [16]: 671 nM
TGI [16]: 66.1 µM
GI50 [17]: 314 nM
TGI [17]: > 100 µM
GI50 [18]: 4.37 µM
TGI [18]: > 100 µM
GI50 [19]: 336 nM
TGI [19]: 10.8 µM
GI50 [20]: 463 nM
TGI [20]: 3.4 µM
GI50 [21]: 700 nM
TGI [21]: 35.5 µM
GI50 [22]: 3.22 µM
TGI [22]: 58.5 µM
GI50 [23]: 1220 nM
TGI [23]: > 100 µM
GI50 [24]: 337 nM
TGI [24]: 14.1 µM
GI50 [25]: 130 nM
TGI [25]: > 44.2 µM
GI50 [26]: 172 nM
TGI [26]: 580 nM
GI50 [27]: 66 nM
TGI [27]: 193 nM
GI50 [28]: 4.21 µM
TGI [28]: 27.6 µM
GI50 [29]: 17.2 µM
TGI [29]: > 100 µM
